Experimental data as given in ChEMBL document CHEMBL3639097, “2-aryl imidazo[1,2-a]pyridine-3-acetamide derivatives, preparation methods and uses thereof” (2015).

Biological target: Translocator protein (Rattus norvegicus, UniProt P16257)
Assay: Competitive Binding Assay: Competitive Binding Test of Drug to the Receptor (Rat Heart TSPO) and Radioligand (3H-PK11195): (1) tubes were placed in reaction condition of 30 C.(2) all tubes were added with 20 ug of receptor protein in order;(3) the test tubes were added in order with 20 uL of drugs in certain concentrations;(4) the non-specific binding tubes were added with 20 uL of non-tagged ligand (PK11195), the final concentration of the non-tagged ligand was 0.1 mM, pre-reacted for 30 min;(5) all tubes were added in order with 25 uL 3H-PK11195, the final concentration of the labeled ligand was 1.5 nM;(6) Tris-HCl Buffer pH7.4 was used to complement the reaction volumes of all tubes to reach 200 uL;(7) the reaction was performed under 30 C. reaction condition for 1 h;(8) Then samples were applied to 49-type glass fibre filter, vacuum suction filtered, then washed with 2 ml ice-cold Tris-HCl buffer solution (50 mM Tris-HCl buffer solution, 1 mM EDTA, 5 mM MgCl2, 1 mM PMSF, 0.1% NaN3.

SMILES	IC50 [nM]	Ki [nM]
CCN(Cc1ccccc1)C(=O)Cc1c(-c2ccc(Cl)cc2)nc2cc(C)ccn12	16.9	7.17
CCN(Cc1ccccn1)C(=O)Cc1c(-c2ccc(Cl)c(Cl)c2)nc2cc(C)ccn12	21.9	9.34
CCN(Cc1ccncc1)C(=O)Cc1c(-c2ccc(Cl)c(Cl)c2)nc2cc(C)ccn12	26	11.1
COCCN(Cc1ccccn1)C(=O)Cc1c(-c2ccc(Cl)c(Cl)c2)nc2cc(C)ccn12	15.6	6.66
